# PubChem BioAssay AID1745844 (Carcinogenic Potency Database (CPDB), 2022)
# Calls of active or inactive are those of the source. No rule for the calls is given here.
# Test system: rodent lifetime carcinogenesis bioassay, tumor incidence TD50
# Experiment: chronic cancer bioassays in animals – CPDB, compiled studies (AID 1745844)
smiles,measurement,setting,value
CC[C@H](C)C(=O)O[C@H]1C[C@@H](C)C=C2C=C[C@H](C)[C@H](CC[C@@H]3C[C@@H](O)CC(=O)O3)[C@H]21,TD50,"mouse, strain Charles River CD1, females, by gavage, site: forestomach, lesion: squamous-cell carcinoma, dosed 92 weeks, study length 92 weeks",38400 mg/kg/day
same,TD50,"mouse, strain Charles River CD1, females, by gavage, site: forestomach, lesion: squamous-cell papilloma, dosed 92 weeks, study length 92 weeks",1020 mg/kg/day
same,TD50,"mouse, strain Charles River CD1, females, by gavage, site: liver, lesion: hepatocellular carcinoma, dosed 92 weeks, study length 92 weeks",2240 mg/kg/day
same,TD50,"mouse, strain Charles River CD1, females, by gavage, site: liver, lesion: several types, types named in the paper, dosed 92 weeks, study length 92 weeks",623 mg/kg/day
same,TD50,"mouse, strain Charles River CD1, females, by gavage, site: lung, lesion: adenocarcinoma, dosed 92 weeks, study length 92 weeks",57400 mg/kg/day
same,TD50,"mouse, strain Charles River CD1, females, by gavage, site: lung, lesion: alveolar-cell adenoma, dosed 92 weeks, study length 92 weeks",1220 mg/kg/day
same,TD50,"mouse, strain Charles River CD1, males, by gavage, site: forestomach, lesion: squamous-cell papilloma, dosed 92 weeks, study length 92 weeks",8550 mg/kg/day
same,TD50,"mouse, strain Charles River CD1, males, by gavage, site: liver, lesion: hepatocellular carcinoma, dosed 92 weeks, study length 92 weeks",708 mg/kg/day
same,TD50,"mouse, strain Charles River CD1, males, by gavage, site: liver, lesion: several types, types named in the paper, dosed 92 weeks, study length 92 weeks",439 mg/kg/day
same,TD50,"rat, strain Charles River CD (Sprague-Dawley), females, by gavage, site: liver, lesion: hepatocellular adenoma, dosed 105 weeks, study length 105 weeks",19900 mg/kg/day (inactive)
same,carcinogen call,"rat, strain Charles River CD (Sprague-Dawley), males, by gavage, site: liver, lesion: hepatocellular adenoma, dosed 105 weeks, study length 105 weeks",negative (inactive)
same,TD50,"rat, strain Charles River CD (Sprague-Dawley), males, by gavage, site: liver, lesion: hepatocellular carcinoma, dosed 105 weeks, study length 105 weeks",2330 mg/kg/day (inactive)
NC(=O)c1ccncc1,TD50,"mouse, strain Swiss albino, females, in drinking water, site: liver, lesion: hepatoma, dosed 121 weeks, study length 121 weeks",21300 mg/kg/day (inactive)
same,carcinogen call,"mouse, strain Swiss albino, females, in drinking water, site: lung, lesion: several types, types named in the paper, dosed 121 weeks, study length 121 weeks",negative (inactive)
same,carcinogen call,"mouse, strain Swiss albino, males, in drinking water, site: lung, lesion: several types, types named in the paper, dosed 117 weeks, study length 117 weeks",negative (inactive)
CCn1cc(C(=O)O)c(=O)c2cc3c(cc21)OCO3,TD50,"mouse, strain ICR, females, in feed, site: liver, lesion: hepatocellular adenoma, dosed 78 weeks, study length 78 weeks",572 mg/kg/day
same,TD50,"mouse, strain ICR, females, in feed, site: lung, lesion: adenoma, dosed 78 weeks, study length 78 weeks",55.1 mg/kg/day
same,TD50,"rat, strain Wistar, females, in feed, site: any site (literature study), lesion: benign tumor, dosed 104 weeks, study length 104 weeks",589 mg/kg/day
same,TD50,"rat, strain Wistar, females, in feed, site: any site (literature study), lesion: malignant tumor, dosed 104 weeks, study length 104 weeks",1040 mg/kg/day
same,TD50,"rat, strain Wistar, females, in feed, site: any site (literature study), lesion: several types, types named in the paper, dosed 104 weeks, study length 104 weeks",68.5 mg/kg/day
same,TD50,"rat, strain Wistar, females, in feed, site: liver, lesion: hepatocellular carcinoma, dosed 104 weeks, study length 104 weeks",2440 mg/kg/day
same,TD50,"rat, strain Wistar, males, in feed, site: any site (literature study), lesion: malignant tumor, dosed 104 weeks, study length 104 weeks",1790 mg/kg/day
same,TD50,"rat, strain Wistar, males, in feed, site: testis, lesion: Leydig-cell adenoma, dosed 104 weeks, study length 104 weeks",167 mg/kg/day
CN(C)CCN(Cc1cccs1)c1ccccc1,carcinogen call,"rat, strain Fischer 344, females, in drinking water, site: liver, lesion: several types, types named in the paper, dosed 82 weeks, study length 130 weeks",negative (inactive)
same,TD50,"rat, strain Fischer 344, females, in drinking water, site: thyroid follicle, lesion: several types, types named in the paper, dosed 82 weeks, study length 130 weeks",487 mg/kg/day (inactive)
same,carcinogen call,"rat, strain Fischer 344, males, in drinking water, site: liver, lesion: several types, types named in the paper, dosed 82 weeks, study length 130 weeks",negative (inactive)
same,carcinogen call,"rat, strain Fischer 344, males, in drinking water, site: thyroid follicle, lesion: several types, types named in the paper, dosed 82 weeks, study length 130 weeks",negative (inactive)
CN(C)c1ccccc1,TD50,"mouse, strain B6C3F1, females, by gavage, site: any site (literature study), lesion: several types, types named in the paper, dosed 103 weeks, study length 104 weeks",108 mg/kg/day
same,TD50,"mouse, strain B6C3F1, females, by gavage, site: forestomach, lesion: squamous-cell papilloma, dosed 103 weeks, study length 104 weeks",99.3 mg/kg/day
same,TD50,"mouse, strain B6C3F1, females, by gavage, site: liver, lesion: hepatocellular adenoma + hepatocellular carcinoma + neoplastic nodule, dosed 103 weeks, study length 104 weeks",163 mg/kg/day
same,TD50,"mouse, strain B6C3F1, females, by gavage, site: lung, lesion: alveolar/bronchiolar adenoma + alveolar/bronchiolar carcinoma, dosed 103 weeks, study length 104 weeks",276 mg/kg/day
same,TD50,"mouse, strain B6C3F1, males, by gavage, site: any site (literature study), lesion: several types, types named in the paper, dosed 103 weeks, study length 104 weeks",489 mg/kg/day (inactive)
same,TD50,"mouse, strain B6C3F1, males, by gavage, site: liver, lesion: hepatocellular adenoma + hepatocellular carcinoma + neoplastic nodule, dosed 103 weeks, study length 104 weeks",216 mg/kg/day
same,TD50,"mouse, strain B6C3F1, males, by gavage, site: lung, lesion: alveolar/bronchiolar adenoma + alveolar/bronchiolar carcinoma, dosed 103 weeks, study length 104 weeks",102 mg/kg/day
same,carcinogen call,"rat, strain Fischer 344, females, by gavage, site: any site (literature study), lesion: several types, types named in the paper, dosed 103 weeks, study length 104 weeks",negative (inactive)
same,TD50,"rat, strain Fischer 344, males, by gavage, site: any site (literature study), lesion: several types, types named in the paper, dosed 103 weeks, study length 104 weeks",93.2 mg/kg/day
same,TD50,"rat, strain Fischer 344, males, by gavage, site: splenic red pulp, lesion: osteosarcoma + sarcoma, NOS, dosed 103 weeks, study length 104 weeks",125 mg/kg/day
same,TD50,"rat, strain Fischer 344, males, by gavage, site: splenic red pulp, lesion: sarcoma, NOS, dosed 103 weeks, study length 104 weeks",175 mg/kg/day
